Data from patent US10688088B2 (priority 2015, dated 2020).
Like-named read-outs stand apart in the source and are kept apart here.

How the values were obtained:
Type in all cases: cell-based, Mycobacterium tuberculosis
[1] = test system: M tuberculosis T3609, resistant to ofloxacin (OFX) and streptomycin; parameters: MIC 2: MIC of the substance tested in combination / MIC 1: MIC of the substance tested alone: unit not given beside the values; conditions: for MIC 2: MIC of the substance tested in combination / MIC 1: MIC of the substance tested alone: strain T3609
[2] = test system: M. tuberculosis T113, resistant to isoniazid (INH), rifampicin (RIF), ethambutol (ETB) and ofloxacin (OFX); parameters: MIC 2: MIC of the substance tested in combination / MIC 1: MIC of the substance tested alone: unit not given beside the values; conditions: for MIC 2: MIC of the substance tested in combination / MIC 1: MIC of the substance tested alone: strain T113
M. tuberculosis = conditions: all the strains (H37Rv, T3609, T113)

## COc1c(N2CCNC(C)C2)c(F)cc2c(=O)c(C(=O)O)cn(C3CC3)c12 (stereo not drawn) [GAT, gatifloxacin]
[1]; combination MFL + GAT
  MIC 2: MIC of the substance tested in combination: 0.31
[1]
  MIC 1: MIC of the substance tested alone: 0.62
[2]; combination MFL + GAT
  MIC 2: MIC of the substance tested in combination: 0.15
[2]
  MIC 1: MIC of the substance tested alone: 0.12

## CC(=O)NC[C@H]1CN(c2ccc(N3CCOCC3)c(F)c2)C(=O)O1 [LYN, linezolid]
[2]; combination MFL + LYN
  MIC 2: MIC of the substance tested in combination: 0.31
[2]
  MIC 1: MIC of the substance tested alone: 0.50

## CC[C@@H](CO)NCCN[C@@H](CC)CO [ETB, ethambutol]
[2]; combination MFL + ETB
  MIC 2: MIC of the substance tested in combination: 12.5
[2]
  MIC 1: MIC of the substance tested alone: 25.0

## C[C@H]1COc2c(N3CCN(C)CC3)c(F)cc3c(=O)c(C(=O)O)cn1c23 [LVX, levofloxacin]
[1]; combination MEF + LVX
  MIC 2: MIC of the substance tested in combination: 2.50
[1]
  MIC 1: MIC of the substance tested alone: 2.50
[2]; combination MEF + LVX
  MIC 2: MIC of the substance tested in combination: 0.31
[2]
  MIC 1: MIC of the substance tested alone: 0.62

## COc1c(N2C[C@@H]3CCCN[C@@H]3C2)c(F)cc2c(=O)c(C(=O)O)cn(C3CC3)c12 [MOX, moxifloxacin]
[1]; combination MFL + MOX
  MIC 2: MIC of the substance tested in combination: 0.62
[1]
  MIC 1: MIC of the substance tested alone: 1.25
[2]; combination MFL + MOX
  MIC 2: MIC of the substance tested in combination: 0.31
[2]
  MIC 1: MIC of the substance tested alone: 0.25

## O=C(O)c1cn(C2CC2)c2cc(N3CCNCC3)c(F)cc2c1=O [CPX, ciprofloxacin]
[1]; combination MEF + CPX
  MIC 2: MIC of the substance tested in combination: 3.12
[1]
  MIC 1: MIC of the substance tested alone: 5.00
[2]; combination MEF + CPX
  MIC 2: MIC of the substance tested in combination: 0.31
[2]
  MIC 1: MIC of the substance tested alone: 0.62

## OC(c1cc(C(F)(F)F)nc2c(C(F)(F)F)cccc12)C1CCCCN1 (stereo not drawn) [Mefloquine, mefloquine]
[1]; combination MEF + CPX
  MIC 2: MIC of the substance tested in combination: 3.12
[1]; combination MEF + LVX
  MIC 2: MIC of the substance tested in combination: 2.50
[1]; combination MFL + GAT
  MIC 2: MIC of the substance tested in combination: 0.31
[1]; combination MFL + INH
  MIC 2: MIC of the substance tested in combination: 0.015
[1]; combination MFL + MOX
  MIC 2: MIC of the substance tested in combination: 0.62
[1]; combination MFL + OFX
  MIC 2: MIC of the substance tested in combination: 2.5
[1]; combination MFL + PYR
  MIC 2: MIC of the substance tested in combination: 0.62
[1]; combination MFL + SPR
  MIC 2: MIC of the substance tested in combination: 0.62
[1]; strain T3609, Tables 1B and 2A
  MICcombination: 25 µg/mL
[2]; combination MEF + CPX
  MIC 2: MIC of the substance tested in combination: 0.31
[2]; combination MEF + LVX
  MIC 2: MIC of the substance tested in combination: 0.31
[2]; combination MFL + GAT
  MIC 2: MIC of the substance tested in combination: 0.15
[2]; combination MFL + INH
  MIC 2: MIC of the substance tested in combination: 3.12
[2]; combination MFL + LYN
  MIC 2: MIC of the substance tested in combination: 0.31
[2]; combination MFL + MOX
  MIC 2: MIC of the substance tested in combination: 0.31
[2]; combination MFL + OFX
  MIC 2: MIC of the substance tested in combination: 0.62
[2]; combination MFL + PYR
  MIC 2: MIC of the substance tested in combination: 0.62
[2]; combination MFL + SPR
  MIC 2: MIC of the substance tested in combination: 0.12
[2]; strain T113, Table 2B
  MICcombination: 25 µg/mL
M. tuberculosis
  cross-resistance (MIC across strains): no cross-resistance

## CC1COc2c(N3CCN(C)CC3)c(F)cc3c(=O)c(C(=O)O)cn1c23 (stereo not drawn) [OFX, ofloxacin]
[1]; combination MFL + OFX
  MIC 2: MIC of the substance tested in combination: 2.5
[1]
  MIC 1: MIC of the substance tested alone: 5.0
[2]; combination MFL + OFX
  MIC 2: MIC of the substance tested in combination: 0.62
[2]
  MIC 1: MIC of the substance tested alone: 1.25

## C[C@@H]1CN(c2c(F)c(N)c3c(=O)c(C(=O)O)cn(C4CC4)c3c2F)C[C@H](C)N1 [SPR, sparfloxacin]
[1]; combination MFL + SPR
  MIC 2: MIC of the substance tested in combination: 0.62
[1]
  MIC 1: MIC of the substance tested alone: 1.25
[2]; combination MFL + SPR
  MIC 2: MIC of the substance tested in combination: 0.12
[2]
  MIC 1: MIC of the substance tested alone: 0.12

## NNC(=O)c1ccncc1 [INH, isoniazid]
[1]; combination MFL + INH
  MIC 2: MIC of the substance tested in combination: 0.015
[1]
  MIC 1: MIC of the substance tested alone: 0.5
[2]; combination MFL + INH
  MIC 2: MIC of the substance tested in combination: 3.12
[2]
  MIC 1: MIC of the substance tested alone: 6.25

## NC(=O)c1cnccn1 [PYR, pyrazinamide]
[1]
  MIC 1: MIC of the substance tested alone: >100
[2]
  MIC 1: MIC of the substance tested alone: >100
